Source: BindingDB's records for doi:10.1021/acs.jmedchem.0c00546 (University of Tennessee, 2020)

Target: T1, Dihydrofolate reductase (Homo sapiens, UniProt P00374)
T1 sequence (P00374 whole entry): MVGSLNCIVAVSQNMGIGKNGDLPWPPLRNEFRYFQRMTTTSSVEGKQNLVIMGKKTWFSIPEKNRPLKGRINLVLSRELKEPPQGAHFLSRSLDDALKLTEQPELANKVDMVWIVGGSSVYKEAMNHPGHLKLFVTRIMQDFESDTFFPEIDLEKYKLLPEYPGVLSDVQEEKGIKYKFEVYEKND
Assay: Inhibition of human DHFR in presence of DHF and NADPH by UV-vis spectrometry by Lineweaver-Burk plot analysis

| Ki | SMILES |
| --- | --- |
| 880 µM | N[C@H](Cc1c[nH]c2ccccc12)C(=O)O [(2R)-2-amino-3-(1H-indol-3-yl)propanoic acid] |
| 180 µM | Nc1ccnc(N)n1 [Diaminopyrimidine] |
